We go through 2 compounds from publication PMC4699555 (Journal of pharmaceutical sciences, 2012).

The format of data set [1] is in vivo, Sprague-Dawley rats.
The conditions of data set [2]: cited from earlier work.
The conditions of data set [3]: cited from earlier work. The source holds these as a separate data set.
The conditions of data set [4]: cited from earlier work. The source holds these as a separate data set.
For data set [5] the following is noted: human studies; cited from earlier work.
For data set [6] the following is noted: cited from earlier work. This is another data set of the same source.

By Aqueous solubility is commonly meant how much of the substance goes into solution per volume. As a reminder, the Tmax is the time at which the peak concentration occurs.

Where two headings read alike, the source gives them in different places.

For `O=C(O)CCC(=O)Nc1ccccc1` [4-anilino-4-oxobutanoic acid], the “Time up to which the metabolite could be detected in rat serum” value in data set [1] (after i.v. (10 mg/kg) and oral (50 mg/kg) vorinostat) is listed as “up to 12 h”. The “Detection of metabolite in urine” value in data set [1] (rats, after i.v. and oral vorinostat) is recorded as “detected”.

With `O=C(CCCCCCC(=O)Nc1ccccc1)NO` [Vorinostat, suberoylanilide hydroxamic acid], in data set [2], the Aqueous solubility was 200 µg/mL. Also, the Elimination half-life entry in data set [3] (animal studies) is recorded as “approximately 2 hours”. In data set [3] (rats, oral 10 mg/kg), the Oral bioavailability is reported as 11% and the time to peak (Tmax) was 18 ± 6 min. The Log partition coefficient in data set [4] is reported as 1.9. The Elimination half-life result in data set [5] is “approximately 2 hours”. For the same compound, the “Biopharmaceutics Classification System (BCS) class” value in data set [6] was “Class IV”.
